Measurements as given in ChEMBL document CHEMBL4417631, “Oral peptide inhibitors of interleukin-23 receptor and their use to treat inflammatory bowel diseases” (2017).
pIC50: −log10 of the molar value. *1 amine or outer side, *2 acyl side, *3 side chain or, on linkers, in order; H or OH if unused. Where a SMILES comes first, the peptide text is derived from it. Bridges are numbered along the chain shown (N, C = ends). [ ]: non-standard residue; d: D form. Abu(4-yl) = O=C([C@H](CC[*:3])N[*:1])[*:2]; 2Nal = N[C@@H](Cc1ccc2ccccc2c1)C(=O)O; AEF = NCCOc1ccc(C[C@H](N)C(=O)O)cc1; αMeK = C[C@](N)(CCCCN)C(=O)O

Assays:
[1] = target: T1, Interleukin-23 receptor (Homo sapiens, UniProt Q5VWK5); assay: Inhibition of interleukin-23 receptor in human DB cells assessed as reduction in IL-23-stimulated STAT3 phosphorylation incubated for 30 mins by HTRF assay; type: cell-based
T1 sequence (Q5VWK5 whole entry): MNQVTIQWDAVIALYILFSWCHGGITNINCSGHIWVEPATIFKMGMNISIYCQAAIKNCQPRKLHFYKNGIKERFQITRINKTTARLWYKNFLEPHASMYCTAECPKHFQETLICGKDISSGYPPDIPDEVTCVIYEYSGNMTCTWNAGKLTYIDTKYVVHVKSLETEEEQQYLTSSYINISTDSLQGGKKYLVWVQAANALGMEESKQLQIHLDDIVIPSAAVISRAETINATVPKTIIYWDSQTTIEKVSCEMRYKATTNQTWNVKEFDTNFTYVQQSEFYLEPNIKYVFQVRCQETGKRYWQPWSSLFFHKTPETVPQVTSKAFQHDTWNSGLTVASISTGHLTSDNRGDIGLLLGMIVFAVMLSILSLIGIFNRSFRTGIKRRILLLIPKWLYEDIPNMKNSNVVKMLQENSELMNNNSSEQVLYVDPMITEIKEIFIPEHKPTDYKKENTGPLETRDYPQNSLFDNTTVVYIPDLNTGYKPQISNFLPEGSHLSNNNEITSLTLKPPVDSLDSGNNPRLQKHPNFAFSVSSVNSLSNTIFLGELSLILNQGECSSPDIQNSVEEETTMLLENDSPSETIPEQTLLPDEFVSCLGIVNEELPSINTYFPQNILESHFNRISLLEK

[2] = Half life in simulated intestinal fluid at 20 uM by LC-MS/MS analysis; type: ADME
[3] = Half life in simulated gastric fluid at 20 uM by LC-MS/MS analysis; type: ADME
[4] = Inhibition of interleukin-23 binding to rat interleukin-23 receptor incubated for 2 hrs by competitive binding ELISA
[5] = target: T1, Interleukin-23 receptor; assay: Inhibition of interleukin-23 binding to human interleukin-23 receptor incubated for 2 hrs by competitive binding ELISA

Q: Which results are given for `CC(=O)NCCCC[C@H](NC(=O)[C@](C)(CCCCN)NC(=O)[C@H](Cc1ccc2ccccc2c1)NC(=O)[C@H](Cc1ccc(OCCN)cc1)NC(=O)[C@@H](NC(=O)[C@H](CCC(N)=O)NC(=O)[C@H](Cc1c[nH]c2ccccc12)NC(=O)[C@@H](NC(=O)[C@H](CCC(N)=O)NC(=O)[C@@H](NC(C)=O)C(C)(C)S)[C@@H](C)O)C(C)(C)S)C(=O)N[C@@H](CC(N)=O)C(=O)N[C@@H](CC(N)=O)C(N)=O`?
A: pIC50 [1]: > 8.00; half-life at 20 µM [2]: > 6 h; half-life at 20 µM [3]: > 6 h; pIC50 [4]: 7.60 to 8.00; pIC50 [5]: > 8.00

Q: Which results are given for `CC(=O)NCCOc1ccc(C[C@H](NC(=O)[C@@H]2CSCC[C@H](NC(C)=O)C(=O)N[C@@H](CCC(N)=O)C(=O)N[C@@H]([C@@H](C)O)C(=O)N[C@@H](Cc3c[nH]c4ccccc34)C(=O)N[C@@H](CCC(N)=O)C(=O)N2)C(=O)N[C@@H](Cc2ccc3ccccc3c2)C(=O)N[C@@](C)(CCCCN)C(=O)N[C@@H](CCC(=O)O)C(=O)N[C@@H](CC(N)=O)C(=O)NCC(N)=O)cc1`?
A: pIC50 [1]: > 8.00; half-life at 20 µM [2]: 1 to 2 h; half-life at 20 µM [3]: < 1 h; pIC50 [4]: > 8.00; pIC50 [5]: > 8.00

Q: With `CC(=O)NCCCC[C@H](NC(=O)[C@](C)(CCCCN)NC(=O)[C@H](Cc1ccc2ccccc2c1)NC(=O)[C@H](Cc1ccc(C(N)=O)cc1)NC(=O)[C@@H]1CSCC[C@H](NC(C)=O)C(=O)N[C@@H](CCC(N)=O)C(=O)N[C@@H]([C@@H](C)O)C(=O)N[C@@H](Cc2c[nH]c3ccccc23)C(=O)N[C@@H](CCC(N)=O)C(=O)N1)C(=O)N[C@@H](CC(N)=O)C(=O)NCC(N)=O` as the compound, how does the pIC50 [1] read?
A: The pIC50 was over 8.00.

Q: What about the half-life at 20 µM [2] of the same compound?
A: Its half-life at 20 µM is 1 to 3 h.

Q: What about the half-life at 20 µM [3] of the same compound?
A: Its half-life at 20 µM is under 1 h.

Q: What about the pIC50 [4] of the same compound?
A: Its pIC50 is 7.00 to 7.60.

Q: What about the pIC50 [5] of the same compound?
A: Its pIC50 is 7.60 to 8.00.

Q: With `CC(=O)N[C@H]1CCSC[C@@H](C(=O)N[C@@H](Cc2ccc(OCCN)cc2)C(=O)N[C@@H](Cc2ccc3ccccc3c2)C(=O)NC2(C(=O)N[C@@H](CCC(=O)O)C(=O)N[C@@H](CC(N)=O)C(=O)N[C@@H](CC(N)=O)C(N)=O)CCCC2)NC(=O)[C@H](CCC(N)=O)NC(=O)[C@H](Cc2c[nH]c3ccccc23)NC(=O)[C@H]([C@@H](C)O)NC(=O)[C@H](CCC(N)=O)NC1=O` as the compound, how does the pIC50 [1] read?
A: Its pIC50 is over 8.00.

Q: What about the half-life at 20 µM [2] of the same compound?
A: The half-life at 20 µM was 2 to 3 h.

Q: What about the half-life at 20 µM [3] of the same compound?
A: Its half-life at 20 µM is over 6 h.

Q: And the pIC50 [4]?
A: Its pIC50 is over 8.00.

Q: Which results are given for `COc1ccc(C[C@H](NC(=O)[C@@H]2CSCC[C@H](NC(C)=O)C(=O)N[C@@H](CCC(N)=O)C(=O)N[C@@H]([C@@H](C)O)C(=O)N[C@@H](Cc3c[nH]c4ccccc34)C(=O)N[C@@H](CCC(N)=O)C(=O)N2)C(=O)N[C@@H](Cc2ccc3ccccc3c2)C(=O)N[C@@](C)(CCCCN)C(=O)N[C@@H](CCCCNC(C)=O)C(=O)N[C@@H](CC(N)=O)C(=O)NCC(N)=O)cc1`?
A: pIC50 [1]: > 8.00; half-life at 20 µM [2]: 3 to 6 h; half-life at 20 µM [3]: < 1 h; pIC50 [4]: 7.60 to 8.00; pIC50 [5]: > 8.00

Q: For `CC(=O)N[C@H]1CCSC[C@@H](C(=O)N[C@@H](Cc2ccc3ccccc3c2)C(=O)N[C@@H](Cc2ccc3ccccc3c2)C(=O)N[C@@](C)(CCCCN)C(=O)N[C@@H](CCC(=O)O)C(=O)N[C@@H](CC(N)=O)C(=O)NCC(N)=O)NC(=O)[C@H](CCC(N)=O)NC(=O)[C@H](Cc2c[nH]c3ccccc23)NC(=O)[C@H]([C@@H](C)O)NC(=O)[C@H](CCC(N)=O)NC1=O` (Ac-[Abu(4-yl)]QTWQC[2Nal][2Nal][αMeK]ENG-NH2; thioether 1-6), which half-life at 20 µM [2] is on record?
A: The half-life at 20 µM was 3 to 6 h.

Q: And the half-life at 20 µM [3]?
A: Its half-life at 20 µM is under 1 h.

Q: And the pIC50 [4]?
A: Its pIC50 is 7.00 to 7.60.

Q: And the pIC50 [5]?
A: The pIC50 was 7.60 to 8.00.

Q: With `CC(=O)N[C@H]1CCSC[C@@H](C(=O)N[C@@H](Cc2ccc(OCCN)cc2)C(=O)N[C@@H](Cc2ccc3ccccc3c2)C(=O)NC2(C(=O)N[C@@H](CCC(=O)O)C(=O)N[C@@H](CC(N)=O)C(=O)N[C@@H](CC(N)=O)C(N)=O)CCNCC2)NC(=O)[C@H](CCC(N)=O)NC(=O)[C@H](Cc2c[nH]c3ccccc23)NC(=O)[C@H]([C@@H](C)O)NC(=O)[C@H](CCC(N)=O)NC1=O` as the compound, how does the pIC50 [1] read?
A: The pIC50 was over 8.00.

Q: And the half-life at 20 µM [2]?
A: The half-life at 20 µM was over 6 h.

Q: What about the half-life at 20 µM [3] of the same compound?
A: The half-life at 20 µM was over 6 h.

Q: What about the pIC50 [4] of the same compound?
A: Its pIC50 is over 8.00.

Q: With `CC(=O)NCCCC[C@H](NC(=O)C(C)(C)NC(=O)[C@H](Cc1ccc2ccccc2c1)NC(=O)[C@H](Cc1ccc(OCCN)cc1)NC(=O)[C@@H]1CSCC[C@H](NC(C)=O)C(=O)N[C@@H](CCC(N)=O)C(=O)N[C@@H]([C@@H](C)O)C(=O)N[C@@H](Cc2c[nH]c3ccccc23)C(=O)N[C@@H](CCC(N)=O)C(=O)N1)C(=O)N[C@@H](CC(N)=O)C(=O)NCC(N)=O` as the compound, how does the pIC50 [1] read?
A: The pIC50 was over 8.00.

Q: And the half-life at 20 µM [2]?
A: The half-life at 20 µM was 1 to 2 h.

Q: And the half-life at 20 µM [3]?
A: The half-life at 20 µM was 1 to 2 h.

Q: What about the pIC50 [5] of the same compound?
A: Its pIC50 is over 8.00.

Q: With `CC(=O)NCCCC[C@H](NC(=O)[C@](C)(CC(C)C)NC(=O)[C@H](Cc1ccc2ccccc2c1)NC(=O)[C@H](Cc1ccc(OCCNC(C)=O)cc1)NC(=O)[C@@H](NC(=O)[C@H](CCC(N)=O)NC(=O)[C@H](Cc1c[nH]c2ccccc12)NC(=O)[C@@H](NC(=O)[C@H](CCC(N)=O)NC(=O)[C@@H](NC(C)=O)C(C)(C)S)[C@@H](C)O)C(C)(C)S)C(=O)N[C@@H](CC(N)=O)C(=O)N[C@@H](CC(N)=O)C(N)=O` as the compound, how does the pIC50 [1] read?
A: Its pIC50 is over 8.00.

Q: What about the half-life at 20 µM [2] of the same compound?
A: Its half-life at 20 µM is over 6 h.

Q: What about the half-life at 20 µM [3] of the same compound?
A: The half-life at 20 µM was over 6 h.

Q: And the pIC50 [5]?
A: Its pIC50 is over 8.00.

Q: With `CC(=O)NCCCC[C@H](NC(=O)C(C)(C)NC(=O)[C@H](Cc1ccc2ccccc2c1)NC(=O)[C@H](Cc1ccc(OCCNC(C)=O)cc1)NC(=O)[C@@H](NC(=O)[C@H](CCC(N)=O)NC(=O)[C@H](Cc1c[nH]c2ccccc12)NC(=O)[C@@H](NC(=O)[C@H](CCC(N)=O)NC(=O)[C@@H](NC(C)=O)C(C)(C)S)[C@@H](C)O)C(C)(C)S)C(=O)N[C@@H](CC(N)=O)C(=O)N[C@@H](CC(N)=O)C(N)=O` as the compound, how does the pIC50 [1] read?
A: Its pIC50 is over 8.00.

Q: What about the half-life at 20 µM [2] of the same compound?
A: Its half-life at 20 µM is over 6 h.

Q: What about the half-life at 20 µM [3] of the same compound?
A: The half-life at 20 µM was over 6 h.

Q: And the pIC50 [5]?
A: The pIC50 was over 8.00.

Q: With `CC(=O)N[C@H]1CCSC[C@@H](C(=O)N[C@@H](Cc2ccc(OCCN)cc2)C(=O)N[C@@H](Cc2ccc3ccccc3c2)C(=O)N[C@@](C)(CCCCN)C(=O)N[C@@H](CC(N)=O)C(=O)N[C@@H](CC(N)=O)C(=O)NCC(N)=O)NC(=O)[C@H](CCC(N)=O)NC(=O)[C@H](Cc2c[nH]c3ccccc23)NC(=O)[C@H]([C@@H](C)O)NC(=O)[C@H](CCC(N)=O)NC1=O` (Ac-[Abu(4-yl)]QTWQC[AEF][2Nal][αMeK]NNG-NH2; thioether 1-6) as the compound, how does the pIC50 [1] read?
A: The pIC50 was over 8.00.

Q: What about the half-life at 20 µM [2] of the same compound?
A: Its half-life at 20 µM is 3 to 6 h.

Q: What about the half-life at 20 µM [3] of the same compound?
A: The half-life at 20 µM was 3 to 6 h.

Q: What about the pIC50 [5] of the same compound?
A: The pIC50 was over 8.00.

Q: With `CC(=O)NCCCC[C@H](NC(=O)C(C)(C)NC(=O)[C@H](Cc1ccc2ccccc2c1)NC(=O)[C@H](Cc1ccc(OCCNC(C)=O)cc1)NC(=O)[C@@H](NC(=O)[C@H](CCC(N)=O)NC(=O)[C@H](Cc1c[nH]c2ccccc12)NC(=O)[C@@H](NC(=O)[C@H](CCC(N)=O)NC(=O)[C@@H](NC(C)=O)C(C)(C)S)[C@@H](C)O)C(C)(C)S)C(=O)N[C@@H](CC(N)=O)C(=O)N[C@@H](CCC(N)=O)C(N)=O` as the compound, how does the pIC50 [1] read?
A: Its pIC50 is over 8.00.

Q: What about the half-life at 20 µM [2] of the same compound?
A: Its half-life at 20 µM is over 6 h.

Q: And the half-life at 20 µM [3]?
A: The half-life at 20 µM was over 6 h.

Q: What about the pIC50 [5] of the same compound?
A: Its pIC50 is over 8.00.

Q: Which results are given for `CC(=O)NCCCC[C@H](NC(=O)[C@](C)(CCCCNC(C)=O)NC(=O)[C@H](Cc1ccc2ccccc2c1)NC(=O)[C@H](Cc1ccc(OCCNC(C)=O)cc1)NC(=O)[C@@H](NC(=O)[C@H](CCC(N)=O)NC(=O)[C@H](Cc1c[nH]c2ccccc12)NC(=O)[C@@H](NC(=O)[C@H](CCC(N)=O)NC(=O)[C@@H](NC(C)=O)C(C)(C)S)[C@@H](C)O)C(C)(C)S)C(=O)N[C@@H](CC(N)=O)C(=O)N[C@@H](CC(N)=O)C(N)=O`?
A: pIC50 [1]: > 8.00; half-life at 20 µM [2]: > 6 h; half-life at 20 µM [3]: > 6 h; pIC50 [5]: > 8.00
